This note sets out measurements from patent US7074789B2, “Kinase inhibitors” (Amgen Inc., priority 1999, dated 2006).

Some results are limits rather than exact numbers.

Common to all, as to assay type: biochemical
The target of assay [1] is T1, ErbB4 (Homo sapiens, UniProt Q15303).
T1 construct: Kinases are expressed as either kinase domains or full length constructs; made in house
In words: Kinase inhibition assay (33P transfer), ErbB4. As to conditions: read-out: ErbB4-1.

Assay [2] addresses T2, FGFR1 (Homo sapiens, UniProt P11362).
T2 construct: Kinases are expressed as either kinase domains or full length constructs; made in house
In words: Kinase inhibition assay (33P transfer), FGFR1. The settings on record: read-out: FGFR1-1.

The target of assay [3] is T3, Tek (Homo sapiens, UniProt Q02763).
T3 construct: Kinases are expressed as either kinase domains or full length constructs; made in house
Briefly: Kinase inhibition assay (33P transfer), Tek. The settings on record: read-out: Tek-1. The essentials:
(§1)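 Radiometric format: recombinant tagged kinase (catalytic domain or whole protein, sometimes combined with regulatory polypeptides) phosphorylates immobilised poly(Glu,Tyr) 4:1 or poly(Arg,Ser) 3:1 using [33P]ATP. Wells are washed in 0.5% phosphoric acid, then counted. IC50 is taken where substrate labelling falls by half.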

In assay [4] the target is T4, IGFR-1 (Homo sapiens, UniProt P08069).
T4 construct: Kinases are expressed as either kinase domains or full length constructs; made in house
In words: Kinase inhibition assay (33P transfer), IGFR-1. As to conditions: Table 2, kinase inhibition class.

The target of assay [5] is T5, c-Met (Homo sapiens, UniProt P08581).
T5 construct: Kinases are expressed as either kinase domains or full length constructs; made in house
T5 sequence (P08581 25-1390): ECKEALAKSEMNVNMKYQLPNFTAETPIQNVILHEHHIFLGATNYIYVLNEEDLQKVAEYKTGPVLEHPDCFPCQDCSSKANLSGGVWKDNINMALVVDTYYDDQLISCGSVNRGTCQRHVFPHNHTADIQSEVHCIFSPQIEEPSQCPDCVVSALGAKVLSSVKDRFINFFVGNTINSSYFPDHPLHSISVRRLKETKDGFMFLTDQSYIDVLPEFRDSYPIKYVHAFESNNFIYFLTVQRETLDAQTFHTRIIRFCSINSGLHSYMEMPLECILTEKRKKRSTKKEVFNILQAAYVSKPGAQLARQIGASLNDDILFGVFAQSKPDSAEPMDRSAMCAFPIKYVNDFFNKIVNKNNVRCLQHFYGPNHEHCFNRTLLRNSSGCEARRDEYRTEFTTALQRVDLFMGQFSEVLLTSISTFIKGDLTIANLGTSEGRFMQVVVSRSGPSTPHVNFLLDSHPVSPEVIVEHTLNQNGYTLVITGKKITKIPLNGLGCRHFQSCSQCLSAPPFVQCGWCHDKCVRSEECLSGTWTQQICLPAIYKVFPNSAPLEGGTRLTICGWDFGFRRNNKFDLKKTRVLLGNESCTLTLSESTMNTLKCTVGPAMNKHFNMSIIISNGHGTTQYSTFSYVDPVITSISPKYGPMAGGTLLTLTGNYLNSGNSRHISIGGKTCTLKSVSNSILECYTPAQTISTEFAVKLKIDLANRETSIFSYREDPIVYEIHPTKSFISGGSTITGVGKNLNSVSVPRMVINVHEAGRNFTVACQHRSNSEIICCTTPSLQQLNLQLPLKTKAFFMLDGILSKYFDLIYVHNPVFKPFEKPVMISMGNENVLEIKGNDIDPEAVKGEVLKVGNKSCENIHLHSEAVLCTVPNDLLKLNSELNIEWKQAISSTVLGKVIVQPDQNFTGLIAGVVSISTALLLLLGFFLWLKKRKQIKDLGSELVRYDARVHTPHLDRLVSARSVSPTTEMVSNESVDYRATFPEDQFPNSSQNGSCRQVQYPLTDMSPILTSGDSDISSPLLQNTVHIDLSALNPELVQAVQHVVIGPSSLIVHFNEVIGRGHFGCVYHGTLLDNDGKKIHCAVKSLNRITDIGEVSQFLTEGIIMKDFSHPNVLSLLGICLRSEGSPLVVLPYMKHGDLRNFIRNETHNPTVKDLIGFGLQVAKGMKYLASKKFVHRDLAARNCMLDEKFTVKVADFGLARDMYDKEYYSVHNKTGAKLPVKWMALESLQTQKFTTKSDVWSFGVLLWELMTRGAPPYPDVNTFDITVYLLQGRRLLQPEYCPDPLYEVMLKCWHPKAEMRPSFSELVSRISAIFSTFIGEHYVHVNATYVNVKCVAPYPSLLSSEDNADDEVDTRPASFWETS
In words: Kinase inhibition assay (33P transfer), c-Met. The settings on record: Table 2, kinase inhibition class; read-out: Met-1. The method, boiled down: as §1

The target in assay [6] is T6, EGFR (Homo sapiens, UniProt P00533).
T6 construct: Kinases are expressed as either kinase domains or full length constructs; made in house
Briefly: Kinase inhibition assay (33P transfer), EGFR. The settings on record: Table 2, kinase inhibition class; read-out: EGFR-1. The method, boiled down: as §1

The target in assay [7] is T7, PDGFRB (Homo sapiens, UniProt P09619).
T7 construct: Kinases are expressed as either kinase domains or full length constructs; made in house
T7 sequence (P09619 33-1106, species assumed): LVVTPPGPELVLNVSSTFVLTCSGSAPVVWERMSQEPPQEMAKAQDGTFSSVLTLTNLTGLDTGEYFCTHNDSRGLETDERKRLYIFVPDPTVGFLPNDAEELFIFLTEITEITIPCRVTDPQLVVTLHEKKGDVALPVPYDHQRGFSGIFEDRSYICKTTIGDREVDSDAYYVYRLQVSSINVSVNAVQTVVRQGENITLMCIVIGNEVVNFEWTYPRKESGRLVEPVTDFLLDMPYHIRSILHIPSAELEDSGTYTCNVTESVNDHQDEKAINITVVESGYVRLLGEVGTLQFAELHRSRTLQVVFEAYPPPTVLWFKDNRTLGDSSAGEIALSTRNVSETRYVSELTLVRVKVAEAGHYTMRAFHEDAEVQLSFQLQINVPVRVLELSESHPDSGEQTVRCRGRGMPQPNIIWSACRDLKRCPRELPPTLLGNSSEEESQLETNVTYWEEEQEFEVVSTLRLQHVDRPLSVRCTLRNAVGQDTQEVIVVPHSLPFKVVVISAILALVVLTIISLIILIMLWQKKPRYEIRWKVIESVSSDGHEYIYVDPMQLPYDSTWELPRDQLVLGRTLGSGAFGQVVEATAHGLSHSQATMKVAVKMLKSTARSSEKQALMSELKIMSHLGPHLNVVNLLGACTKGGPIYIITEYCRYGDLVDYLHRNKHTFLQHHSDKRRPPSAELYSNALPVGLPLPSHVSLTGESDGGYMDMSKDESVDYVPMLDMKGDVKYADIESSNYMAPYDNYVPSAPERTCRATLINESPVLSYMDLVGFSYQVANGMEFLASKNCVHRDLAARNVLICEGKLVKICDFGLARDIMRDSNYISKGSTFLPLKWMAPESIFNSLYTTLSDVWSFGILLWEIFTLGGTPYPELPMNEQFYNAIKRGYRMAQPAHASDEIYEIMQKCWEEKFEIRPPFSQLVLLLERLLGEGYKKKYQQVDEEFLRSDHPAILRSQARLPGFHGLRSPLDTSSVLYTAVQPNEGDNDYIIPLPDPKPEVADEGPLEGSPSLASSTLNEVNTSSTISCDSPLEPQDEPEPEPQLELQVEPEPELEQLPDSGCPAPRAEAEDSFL
In words: Kinase inhibition assay (33P transfer), PDGFRB. The settings on record: read-out: PDGFRB-1.

The target in assay [8] is T8, Itk (Homo sapiens, UniProt Q08881).
T8 construct: Kinases are expressed as either kinase domains or full length constructs; made in house
T8 sequence (Q08881 1-620): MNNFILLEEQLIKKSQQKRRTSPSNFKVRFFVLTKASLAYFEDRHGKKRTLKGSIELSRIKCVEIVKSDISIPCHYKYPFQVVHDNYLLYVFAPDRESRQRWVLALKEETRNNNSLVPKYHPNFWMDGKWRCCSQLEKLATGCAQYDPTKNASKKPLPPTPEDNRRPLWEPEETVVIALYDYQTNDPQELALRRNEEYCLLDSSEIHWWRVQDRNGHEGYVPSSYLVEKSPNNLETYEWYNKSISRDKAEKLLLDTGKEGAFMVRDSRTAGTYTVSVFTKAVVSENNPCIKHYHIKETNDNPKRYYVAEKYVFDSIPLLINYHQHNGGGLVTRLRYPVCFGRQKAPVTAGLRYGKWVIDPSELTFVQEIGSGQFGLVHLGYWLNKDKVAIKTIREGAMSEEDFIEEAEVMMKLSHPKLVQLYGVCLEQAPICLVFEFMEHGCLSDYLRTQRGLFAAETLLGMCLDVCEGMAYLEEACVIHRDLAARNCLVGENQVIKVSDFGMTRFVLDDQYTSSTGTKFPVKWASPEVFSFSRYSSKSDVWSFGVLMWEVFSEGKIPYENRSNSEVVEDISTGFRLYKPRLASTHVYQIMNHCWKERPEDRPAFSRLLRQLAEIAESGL
Briefly: Kinase inhibition assay (33P transfer), Itk. The settings on record: Table 3; read-out: Itk-1. The essentials:
as §1

Assay [9] addresses T9, Fyn (Homo sapiens, UniProt P06241).
T9 construct: Kinases are expressed as either kinase domains or full length constructs; made in house
In words: Kinase inhibition assay (33P transfer), Fyn. As to conditions: read-out: Fyn-1. The method, boiled down: as §1

In assay [10] the target is T10, Hck-1 (Homo sapiens, UniProt P08631).
T10 construct: Kinases are expressed as either kinase domains or full length constructs; made in house
T10 sequence (P08631 whole entry, the tested form may be a part): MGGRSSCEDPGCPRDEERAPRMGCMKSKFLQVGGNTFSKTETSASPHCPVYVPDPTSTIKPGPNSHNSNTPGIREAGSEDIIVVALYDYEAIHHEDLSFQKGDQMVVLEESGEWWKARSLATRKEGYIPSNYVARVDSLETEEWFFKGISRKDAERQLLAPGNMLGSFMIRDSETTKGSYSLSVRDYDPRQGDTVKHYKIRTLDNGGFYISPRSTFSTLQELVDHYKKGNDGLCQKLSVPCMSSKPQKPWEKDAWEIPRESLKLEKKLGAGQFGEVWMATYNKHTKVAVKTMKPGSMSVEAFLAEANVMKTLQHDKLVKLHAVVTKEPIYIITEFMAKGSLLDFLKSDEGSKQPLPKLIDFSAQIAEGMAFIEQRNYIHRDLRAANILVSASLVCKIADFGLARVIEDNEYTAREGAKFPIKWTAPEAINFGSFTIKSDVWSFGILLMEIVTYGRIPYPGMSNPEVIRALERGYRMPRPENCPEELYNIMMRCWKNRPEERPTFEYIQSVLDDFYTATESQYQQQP
In words: Kinase inhibition assay (33P transfer), Hck. As to conditions: Table 6, Hck-1 kinase inhibition class.

Assay [11] addresses T11, Flt-1 (Homo sapiens, UniProt P17948).
T11 construct: Kinases are expressed as either kinase domains or full length constructs; made in house
In words: Kinase inhibition assay (33P transfer), Flt-1. The method, boiled down:
as §1

Assay [12] concerns the target T12, Lck (Homo sapiens, UniProt P06239).
T12 construct: Kinases are expressed as either kinase domains or full length constructs; made in house
In words: Kinase inhibition assay (33P transfer), Lck. The settings on record: Table 3; read-out: Lck-1. The essentials:
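Each kinase, expressed as a GST- or polyHis-tagged domain or full-length protein, phosphorylated plate-attached poly(Glu,Tyr) 4:1 or poly(Arg,Ser) 3:1 using 33P-ATP. Bound radioactivity was measured by scintillation after a 0.5% phosphoric acid wash.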

T11 sequence (P17948 27-1338, species assumed): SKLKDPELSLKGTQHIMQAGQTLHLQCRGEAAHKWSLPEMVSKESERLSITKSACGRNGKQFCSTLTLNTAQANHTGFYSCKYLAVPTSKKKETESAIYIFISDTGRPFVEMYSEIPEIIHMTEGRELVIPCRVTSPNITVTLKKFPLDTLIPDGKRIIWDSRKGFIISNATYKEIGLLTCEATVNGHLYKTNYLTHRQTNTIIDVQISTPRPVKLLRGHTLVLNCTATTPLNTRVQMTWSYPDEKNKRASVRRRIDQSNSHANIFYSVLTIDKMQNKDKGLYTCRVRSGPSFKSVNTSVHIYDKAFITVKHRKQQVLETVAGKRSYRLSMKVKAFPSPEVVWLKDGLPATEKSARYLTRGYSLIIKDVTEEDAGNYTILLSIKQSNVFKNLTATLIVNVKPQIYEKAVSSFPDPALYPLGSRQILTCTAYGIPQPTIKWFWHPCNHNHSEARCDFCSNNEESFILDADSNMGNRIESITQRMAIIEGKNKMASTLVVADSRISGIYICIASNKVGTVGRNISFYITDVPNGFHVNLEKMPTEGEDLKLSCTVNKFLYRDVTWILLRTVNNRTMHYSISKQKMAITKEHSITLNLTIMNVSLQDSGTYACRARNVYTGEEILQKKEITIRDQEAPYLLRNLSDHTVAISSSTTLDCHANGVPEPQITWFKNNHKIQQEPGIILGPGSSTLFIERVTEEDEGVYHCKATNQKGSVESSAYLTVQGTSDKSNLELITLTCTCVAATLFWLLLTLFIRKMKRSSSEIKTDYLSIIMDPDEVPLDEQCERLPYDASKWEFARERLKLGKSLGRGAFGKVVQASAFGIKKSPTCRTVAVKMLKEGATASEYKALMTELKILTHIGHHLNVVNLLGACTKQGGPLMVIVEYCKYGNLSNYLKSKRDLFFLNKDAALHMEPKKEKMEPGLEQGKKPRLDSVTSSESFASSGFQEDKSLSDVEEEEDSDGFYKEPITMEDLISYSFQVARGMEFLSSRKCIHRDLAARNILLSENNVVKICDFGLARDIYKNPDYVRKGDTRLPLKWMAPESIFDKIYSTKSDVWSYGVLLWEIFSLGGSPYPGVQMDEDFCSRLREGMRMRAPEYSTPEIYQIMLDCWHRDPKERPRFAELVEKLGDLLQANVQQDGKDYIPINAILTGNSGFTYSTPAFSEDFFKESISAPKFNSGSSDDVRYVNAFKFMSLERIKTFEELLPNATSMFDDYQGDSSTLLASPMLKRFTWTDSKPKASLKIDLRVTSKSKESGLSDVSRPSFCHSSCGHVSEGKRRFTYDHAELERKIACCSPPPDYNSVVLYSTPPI
T9 sequence (P06241 whole entry, species assumed, the tested form may be a part): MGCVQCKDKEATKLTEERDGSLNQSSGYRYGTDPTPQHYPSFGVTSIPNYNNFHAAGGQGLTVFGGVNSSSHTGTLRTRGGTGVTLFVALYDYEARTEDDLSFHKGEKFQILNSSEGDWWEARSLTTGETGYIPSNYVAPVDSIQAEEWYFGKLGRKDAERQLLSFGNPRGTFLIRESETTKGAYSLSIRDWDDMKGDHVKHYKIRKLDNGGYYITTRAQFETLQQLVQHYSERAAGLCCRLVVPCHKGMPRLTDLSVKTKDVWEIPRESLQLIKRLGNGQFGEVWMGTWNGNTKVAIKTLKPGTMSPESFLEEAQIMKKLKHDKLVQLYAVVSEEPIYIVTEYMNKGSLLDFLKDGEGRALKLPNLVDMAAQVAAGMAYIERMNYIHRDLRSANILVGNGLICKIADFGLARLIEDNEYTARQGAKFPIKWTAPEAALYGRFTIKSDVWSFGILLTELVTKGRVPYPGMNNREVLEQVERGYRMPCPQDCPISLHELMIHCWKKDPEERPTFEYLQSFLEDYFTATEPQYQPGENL

With `NC(=O)c1ccc(Nc2ncnc(Nc3cc(-c4ccco4)n[nH]3)n2)cc1` [Compound 341], the IC50 in assay [1] is over 12.4 µM; in assay [2] it was under 1.1 µM; in [3], over 12.4 µM; in assay [4] it was 1.1 to 6.62 µM; in [5], 1.1 to 6.62 µM; in [6] it was 6.62 to 9.66 µM. Also, the IC50 in assay [7] was under 1.1 µM; in assay [8], 6.62 to 9.66 µM; in [9], over 12.4 µM; in assay [10] it was over 12.4 µM; in assay [11] it was under 1.1 µM; in assay [12], 6.62 to 9.66 µM.

Take `COc1cc(Nc2ncnc(-c3c(O)[nH]c4ccccc34)n2)cc(OC)c1OC` [Compound 380]: the IC50 in assay [1] was 1.02 to 6.1 µM; in assay [2], under 1.02 µM; in assay [3], over 11.4 µM; in assay [4], 6.1 to 8.9 µM; in assay [5], over 11.4 µM; in [6], over 11.4 µM. In addition, the IC50 in [7] is under 1.02 µM; in assay [8], over 11.4 µM; in assay [9] it was 1.02 to 6.1 µM; in [10], over 11.4 µM; in assay [11], under 1.02 µM; in assay [12], over 11.4 µM.

Consider `COc1cc(Nc2ncnc(-n3cc(CC(N)=O)c4ccccc43)n2)cc(OC)c1OC` [Compound 353], for which the IC50 was over 10.4 µM in [1]; 0.921 to 5.52 µM in [2]; over 10.4 µM in assay [3]; over 10.4 µM in [4]; over 10.4 µM in assay [5]; over 10.4 µM in [6]. In addition, the IC50 was under 0.921 µM in assay [7]; 0.921 to 5.52 µM in assay [8]; 8.06 to 10.4 µM in assay [9]; over 10.4 µM in [10]; under 0.921 µM in assay [11]; 8.06 to 10.4 µM in assay [12].

With `NC(=O)c1ccc(Nc2ncnc(-n3c(N)nc4ccccc43)n2)cc1` [Compound 396], the IC50 in [1] is 1.15 to 6.93 µM; in assay [2], under 1.15 µM; in assay [3], 1.15 to 6.93 µM; in assay [4] it was under 1.15 µM; in assay [5], 1.15 to 6.93 µM; in [6] it was 6.93 to 10.1 µM. Besides, the IC50 in assay [7] is 1.15 to 6.93 µM; in assay [8], under 1.15 µM; in assay [9] it was 1.15 to 6.93 µM; in assay [10], 6.93 to 10.1 µM; in [11], under 1.15 µM; in assay [12], 1.15 to 6.93 µM.

`COc1cc(Nc2ncnc(-n3c(Nc4cccc(C(N)=O)c4)nc4ccccc43)n2)cc(OC)c1OC` [Compound 377]: the IC50 in assay [1] is over 8.78 µM; in [2] it was under 0.78 µM; in assay [3] it was 6.83 to 8.78 µM; in assay [4], 4.68 to 6.83 µM; in assay [5], 6.83 to 8.78 µM; in [6], over 8.78 µM. The IC50 is under 0.78 µM in assay [7]; 6.83 to 8.78 µM in assay [8]; over 8.78 µM in [9]; over 8.78 µM in assay [10]; under 0.78 µM in [11]; 0.78 to 4.68 µM in [12].

Regarding `COc1cc(Nc2ncnc(Nc3cccc(Br)c3)n2)cc(OC)c1OC` [Compound 75], the IC50 in assay [1] is over 10.4 µM; in assay [2] it was 8.1 to 10.4 µM; in assay [3], over 10.4 µM; in assay [4], under 0.925 µM; in assay [5], 8.1 to 10.4 µM; in [6], under 0.925 µM. Moreover, the IC50 in assay [7] was over 10.4 µM; in [8] it was over 10.4 µM; in assay [9] it was 0.925 to 5.55 µM; in assay [10] it was over 10.4 µM; in assay [11], over 10.4 µM; in assay [12] it was 0.925 to 5.55 µM.

For the compound `COc1cccc(Nc2ncnc(Nc3cc(OC)c(OC)c(OC)c3)n2)c1` [Compound 87], the IC50 is 9.13 to 11.7 µM in assay [1]; 6.26 to 9.13 µM in assay [2]; over 11.7 µM in assay [3]; under 1.04 µM in [4]; over 11.7 µM in assay [5]; 1.04 to 6.26 µM in assay [6]. In addition, the IC50 in assay [7] is under 1.04 µM; in assay [8], over 11.7 µM; in assay [9], 1.04 to 6.26 µM; in assay [10], over 11.7 µM; in assay [11] it was 9.13 to 11.7 µM; in assay [12], 1.04 to 6.26 µM.
